The source of these data is patent publication US20240090497A1, “SURFACTANT BLENDS FOR HYPOHALITE-BASED DISINFECTING COMPOSITIONS” (GOJO Industries, Inc., priority 2022, published 2024).

The series is described as follows: Surface tension of hypohalite-based disinfecting compositions, Wilhelmy plate method. The format is physicochemical. The conditions noted are these: hypohalite-based disinfecting composition with this surfactant alone (0% or 100% point of the blend plot). How it is done:
Various combinations of surfactants were tested with respect to the surface tension of hypohalite-based disinfecting compositions comprising the surfactant blend. Specifically, exemplary blends were prepared using varying surfactants having an average tail chain length of a C10 to C14 value. The surfactant blends were tested at varying molar ratios.
Accordingly, each surfactant blend comprised a first surfactant having a first surfactant surface tension T^1 and a second surfactant having a second surfactant surface tension T^2. The respective overall surface tension T for each surfactant blend was thereafter tested, using the Wilhelmy plate method.
As for `CCCCCCCCCCO[C@@H]1O[C@H](CO)[C@@H](O)[C@H](O)[C@H]1O` [decyl glucoside], the “individual surfactant surface tension” value amounted to 28.7 mN/m.

Consider `CCCCCCCCCCCCOS(=O)(=O)[O-].[Na+]` [sodium lauryl sulfate], for which the “individual surfactant surface tension” value amounted to 29.7 mN/m.

For `CCCCCCCCCCCCCCOS(=O)(=O)[O-].[Na+]` [sodium myristyl sulfate], the “individual surfactant surface tension” value stood at 39.8 mN/m.

cocobetaine: the “individual surfactant surface tension” value turned out to be 34.7 mN/m.

Take lauramine oxide: the “individual surfactant surface tension” value came to 32.4 mN/m.

Consider laureth-6, for which the “individual surfactant surface tension” value was found to be 29.7 mN/m.

With myristamine oxide, the “individual surfactant surface tension” value is 32.1 mN/m.

Take undeceth-3: the “individual surfactant surface tension” value was 26.9 mN/m.
